Laboratory results: ChEMBL document CHEMBL5728572, “Thiadiazole IRAK4 compounds” (2021)
pIC50: −log10 of the molar value.

Biological target: T1, Interleukin-1 receptor-associated kinase 4 (Homo sapiens, UniProt Q9NWZ3)
T1 sequence (Q9NWZ3 whole entry): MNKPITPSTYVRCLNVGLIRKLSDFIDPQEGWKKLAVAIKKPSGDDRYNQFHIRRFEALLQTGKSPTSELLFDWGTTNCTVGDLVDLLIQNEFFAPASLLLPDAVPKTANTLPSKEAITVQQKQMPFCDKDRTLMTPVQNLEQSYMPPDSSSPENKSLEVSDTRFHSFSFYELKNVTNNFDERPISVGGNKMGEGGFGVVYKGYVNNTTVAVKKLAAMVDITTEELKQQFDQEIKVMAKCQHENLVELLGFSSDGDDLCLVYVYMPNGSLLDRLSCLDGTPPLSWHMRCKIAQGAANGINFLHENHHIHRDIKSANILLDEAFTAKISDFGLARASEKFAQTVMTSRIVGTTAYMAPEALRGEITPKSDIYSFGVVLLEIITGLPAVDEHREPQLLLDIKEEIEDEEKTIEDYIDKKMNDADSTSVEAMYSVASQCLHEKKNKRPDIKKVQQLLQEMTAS
Experiment: IRAK4 Biochemical Assay: IRAK4 enzyme (Carna Biosciences, Chuo-ku, Kobe, Japan) activity was measured by detecting phosphorylated peptide substrate formation using an antibody against the phosphorylated peptide substrate. This is a time-resolved fluorescence resonance energy transfer (TR-FRET) immunoassay, based on the STK1 KinEASE Assay (Cisbio, Bedford, Mass.). The assay was designed as a simple two-step, endpoint assay (a 5 μl enzyme reaction followed by 5 μl stop and detect Solution) performed in ProxiPlate-384 Plus plates (Perkin Elmer, Waltham, Mass.). Staurosporine, a non-selective kinase inhibitor was used as a positive control. Compounds diluted in DMSO were spotted into 384 well plates using a Labcyte® Echo 550 Liquid Handling System prior to addition of IRAK4 enzyme and peptide substrate. Reaction solutions were delivered using a Multi-Flo (Bio-Tek Instruments). The enzyme and peptide solution was incubated with compound for 15 minutes at room temp before the reaction was initiated by the addition of ATP. The standard 5 μl reaction mixture contained 500 μM ATP, […] (STK1 Peptide), 0.75 nM of IRAK4 in reaction buffer (50 mM HEPES, pH 7.0, 0.02% NaN3, 0.01% BSA, 0.1 mM Orthovanadate, 5 mM […], 0.025% NP-40, 1 mM DTT). […]

pIC50: 8.74
SMILES: CC(C)Nc1cc(-c2ccc3cc(C#N)cnn23)ncc1-c1nnc(N2CCCC2)s1
